Our source for the viability values is patent publication US9981968B2, “Substituted pyrrolo[2,3-d]pyrimidines for the treatment of cancer and proliferative disorders” (Northwestern University, priority 2013, dated 2018).

Type in all cases: cell-based
In experiment [1] the test system is MDA-MB-435. Description: SRB growth assay, MDA-MB-435. Particulars: Homo sapiens, MDA-MB-435 (Melanoma), 48 hours, read-out: Percent viability. The text has this:
(§1) Tested cell lines included, Leukemia: CCRF-CEM, HL-60(TB), MOLT-4, RPMI-8226 and SR; Non-Small Cell Lung: A549/ATCC, EKVX, HOP-62, HOP-92, NCI-H226, NCI-H23, NCI-H322M, NCI-H460 and NCI-H522; Colon: COLO 205, HCC-2998, HCT-116, HCT-15. HT29, KM12 and SW-620; CNS: SF-268, SF-295, SF-539, SNB-19, SNB-75 and U251; Melanoma: LOX IMVI, MALME-3M, M14, MDA-MB-435, SK-MEL-2, SK-MEL-28, SK-MEL-5, UACC-257 and UACC-62; Ovarian: IGR-OV1, OVCAR-3, OVCAR-4, OVCAR-5, OVCAR-8. NCI/ADR-RES and SK-OV-3; Renal: 786-0, A498, ACHN, CAKI-1, RXF 393, SN12C, TK-10 and UO-31; Prostate: DU-145 and PC-3; and Breast: MCF7, MDA-MB-231/ATCC, MDA-MB-468, HS 578T, BT-549 and T-47D.
(§2) The cells were cultured in RPMI1640 media supplemented with 10% Fetal Bovine Serum (FBS), 2 mM glutamine and with 5% CO2 and 37° C. For experiment, 5% of FBS and 50 ug/mL of gentamycin were used. Test articles were 10 μM of NUCL 381-3 or 10 μM NUCL 383-3. The positive control was 10 μM of doxorubicin.
(§3) Cells were plated in 96 well plates. The cells were plated in triplicate. Cells were plated at the densities based on NCI recommendation. Time zero cells (Tz) were fixed the following day with 50% or 80% ice cold Trichloracetic acid (TCA) and washed 5× with water. At 48 hours post addition of treatments, all remaining plates were fixed in 80% ice cold Trichloracetic acid (TCA) and washed 5× with water. After drying, one hundred microliters of 0.4% Sulphorhodamine B (SRB) in 1% acetic acid was added to each plate including the Tzero plate and incubated for 10 minutes at room temperature. After 5 additional washes with 1% acetic acid, plates were allowed to dry. One hundred microliters of Trizma base was added to each well and plates were read at 515 nm.
(§4) Percent of growth was calculated by the following formulas: [Ti/C]×100, where: Tz=absorbance readings for wells at time zero without treatment; C=absorbance readings of untreated cells (without treatment); and Ti=absorbance reading of wells with treatment.
(In SRB staining, fixed cells bind dye roughly in proportion to their protein.)

For experiment [2], the system named is MDA-MB-468. Description: SRB growth assay, MDA-MB-468. Particulars: Homo sapiens, MDA-MB-468 (Breast), 48 hours, read-out: Percent viability.
Source text: as §1, §2, §3, §4

The test system of experiment [3] is SNB-19. The experiment in a line: SRB growth assay, SNB-19. Particulars: Homo sapiens, SNB-19 (CNS), 48 hours, read-out: Percent viability.
Source text: as §1, §2, §3, §4

For experiment [4], the system named is M14. The experiment in a line: SRB growth assay, M14. Particulars: Homo sapiens, M14 (Melanoma), 48 hours, read-out: Percent viability.
Source text: as §1, §2, §3, §4

The subject of experiment [5] is UACC-62. The experiment in a line: SRB growth assay, UACC-62. Particulars: Homo sapiens, UACC-62 (Melanoma), 48 hours, read-out: Percent viability.
Source text: as §1, §2, §3, §4

The test system of experiment [6] is SK-OV-3. Description: SRB growth assay, SK-OV-3. Particulars: Homo sapiens, SK-OV-3 (Ovarian), 48 hours, read-out: Percent viability.
Source text: as §1, §2, §3, §4

Experiment [7] concerns COLO 205. The experiment in a line: SRB growth assay, COLO 205. Particulars: Homo sapiens, COLO 205 (Colon), 48 hours, read-out: Percent viability.
Source text: as §1, §2, §3, §4

The test system of experiment [8] is HL-60(TB). Description: SRB growth assay, HL-60(TB). Particulars: Homo sapiens, HL-60(TB) (Leukemia), 48 hours, read-out: Percent viability.
Source text: as §1, §2, §3, §4

In experiment [9] the test system is HCC-2998. The experiment in a line: SRB growth assay, HCC-2998. Particulars: Homo sapiens, HCC-2998 (Colon), 48 hours, read-out: Percent viability.
Source text: as §1, §2, §3, §4

For experiment [10], the system named is KM12. The experiment in a line: SRB growth assay, KM12. Particulars: Homo sapiens, KM12 (Colon), 48 hours, read-out: Percent viability.
Source text: as §1, §2, §3, §4

Experiment [11] concerns CCRF-CEM. Description: SRB growth assay, CCRF-CEM. Particulars: Homo sapiens, CCRF-CEM (Leukemia), 48 hours, read-out: Percent viability.
Source text: as §1, §2, §3, §4

Experiment [12] concerns BT-549. Description: SRB growth assay, BT-549. Particulars: Homo sapiens, BT-549 (Breast), 48 hours, read-out: Percent viability.
Source text: as §1, §2, §3, §4

The test system of experiment [13] is OVCAR-3. Description: SRB growth assay, OVCAR-3. As to conditions: Homo sapiens, OVCAR-3 (Ovarian), 48 hours, read-out: Percent viability.
Source text: as §1, §2, §3, §4

Experiment [14] relates to RPMI-8226. Description: SRB growth assay, RPMI-8226. Particulars: Homo sapiens, RPMI-8226 (Leukemia), 48 hours, read-out: Percent viability.
Source text: as §1, §2, §3, §4

For experiment [15], the system named is IGR-OV1. The experiment in a line: SRB growth assay, IGR-OV1. As to conditions: Homo sapiens, IGROV-1, IGR-OV1 (Ovarian), 48 hours, read-out: Percent viability.
Source text: as §1, §2, §3, §4

Experiment [16] has as its system NCI-H522. Description: SRB growth assay, NCI-H522. As to conditions: Homo sapiens, NCI-H522 (Non-Small Cell Lung), 48 hours, read-out: Percent viability.
Source text: as §1, §2, §3, §4

The subject of experiment [17] is HT29. Description: SRB growth assay, HT29. Particulars: Homo sapiens, HT-29, HT29 (Colon), 48 hours, read-out: Percent viability.
Source text: as §1, §2, §3, §4

Experiment [18] has as its system HOP-92. Description: SRB growth assay, HOP-92. As to conditions: Homo sapiens, HOP-92 (Non-Small Cell Lung), 48 hours, read-out: Percent viability.
Source text: as §1, §2, §3, §4

Experiment [19] deals with NCI-H460. The experiment in a line: SRB growth assay, NCI-H460. Particulars: Homo sapiens, NCI-H460 (Non-Small Cell Lung), 48 hours, read-out: Percent viability.
Source text: as §1, §2, §3, §4

For experiment [20], the system named is HS 578T. The experiment in a line: SRB growth assay, HS 578T. As to conditions: Homo sapiens, HS 578T (Breast), 48 hours, read-out: Percent viability.
Source text: as §1, §2, §3, §4

The test system of experiment [21] is A498. Description: SRB growth assay, A498. Particulars: Homo sapiens, A498 (Renal), 48 hours, read-out: Percent viability.
Source text: as §1, §2, §3, §4

For experiment [22], the system named is SK-MEL-28. The experiment in a line: SRB growth assay, SK-MEL-28. Particulars: Homo sapiens, SK-MEL-28 (Melanoma), 48 hours, read-out: Percent viability.
Source text: as §1, §2, §3, §4

Experiment [23] concerns NCI-H322M. The experiment in a line: SRB growth assay, NCI-H322M. As to conditions: Homo sapiens, NCI-H322M (Non-Small Cell Lung), 48 hours, read-out: Percent viability.
Source text: as §1, §2, §3, §4

The structures appear in SMILES notation.

The viability is a read-out of living cells in per cent, often relative to untreated cells. Turning to `COc1cccc2c1C(=O)c1c(O)c3c(c(O)c1C2=O)C[C@@](O)(C(=O)CO)C[C@@H]3O[C@H]1C[C@H](N)[C@H](O)[C@H](C)O1` [Doxorubicin, reference compound], the viability at 10 µM turned out to be 17.4% in experiment [1]; 45.8% in experiment [2]; 37.3% in experiment [3]; 25.5% in [4]; 4.85% in [5]; 47.8% in [6]. The viability at 10 µM turned out to be 2.33% in [7]; 25% in experiment [8]; 20.9% in experiment [9]; 71.8% in [10]; 43.6% in [11]; 62.5% in [12]. Also, the viability at 10 µM was 16.8% in [13]; 44.2% in [14]; 8.63% in experiment [15]; 18.1% in experiment [16]; 34.9% in experiment [17]; 98.5% in experiment [18]. Also, the viability at 10 µM in experiment [19] was 35%; in experiment [20] it was 51.5%; in [21], 62.9%; in experiment [22], 29.7%; in [23] it was 42.6%.
As for `CS(=O)(=O)N1CCC(Cn2cc(C(F)(F)F)c3c(Cl)ncnc32)CC1` [NUCC-0000383], the viability at 10 µM was found to be 46.6% in [1]; 93.8% in experiment [2]; 21.4% in [3]; 78.5% in experiment [4]; 8.26% in experiment [5]; 74.2% in [6]. Also, the viability at 10 µM in [7] came out at 93%; in experiment [8], 22.5%; in experiment [9] it was 73.2%; in [10], 99.5%; in [11], 54%; in experiment [12], 79.2%. Moreover, the viability at 10 µM turned out to be 95.5% in experiment [13]; 100% in experiment [14]; 77.5% in experiment [15]; 21.7% in experiment [16]; 30.3% in experiment [17]; 97.6% in experiment [18]. Further, the viability at 10 µM in [19] is 69.1%; in [20], 50.1%; in experiment [21], 101%; in experiment [22], 4.54%; in experiment [23] it was 53.8%.
Take `FC(F)(F)c1cn(CC2CCNCC2)c2ncnc(Cl)c12` [NUCC-0000381]: the viability at 10 µM in experiment [1] worked out at 65.5%; in experiment [2], 102%; in experiment [3], 28.9%; in experiment [4], 96.2%; in [5] it was 46.3%; in [6] it was 56.5%. For the same molecule, the viability at 10 µM is 79.5% in experiment [7]; 25.8% in experiment [8]; 93.5% in experiment [9]; 31% in [10]; 52.8% in [11]; 103% in [12]. The viability at 10 µM in experiment [13] was 48.7%; in experiment [14], 100%; in experiment [15], 36.9%; in [16], 38.7%; in [17], 33.3%; in [18] it was 56.8%. Further, the viability at 10 µM is 26.4% in experiment [19]; 53.9% in [20]; 93.8% in experiment [21]; 93.3% in [22]; 68.1% in [23].
